Results taken from patent US10336696B2, “Bicarbazole compound, photo-curable composition, cured product thereof, curable composition for plastic lens, and plastic lens” (DIC Corporation, priority 2014, dated 2019).

Tests used:
[1] = Refractive index of compounds (NMP solutions, extrapolated); format: physicochemical; settings: compound diluted with NMP, three concentrations, Abbe refractometer, 589 nm (D line)
Experimental: The refractive index of each of the compounds was determined as follows. A compound was diluted with N-methylpyrrolidone (NMP) to prepare three samples having different concentrations. Liquid refractive indices of the respective solutions were measured, and the measured data was extrapolated to calculate the refractive index.
Measuring device: Abbe refractometer NRA-2T, manufactured by Atago Co., Ltd.
Measurement wavelength: 589 nm (D line)

[2] = Solubility in o-phenylphenoxyethyl acrylate; format: physicochemical; parameters: key: A: Soluble; B: Insoluble; settings: for Solubility, 10 mass %: compound concentration 10% by mass; for Solubility, 50 mass %: compound concentration 50% by mass
Experimental: The solubility was evaluated on the basis of whether a compound was soluble or insoluble in o-phenylphenoxyethyl acrylate. The evaluation was performed at two levels at which the compound concentration was 10% by mass and 50% by mass.

SMILES	Liquid refractive index [1]	Solubility, 10 mass % [2]	Solubility, 50 mass % [2]
C=Cn1c2ccccc2c2ccccc21 [Comparative Example 1, 9-vinylcarbazole, reference compound]	1.674	A	B
c1ccc2c(c1)[nH]c1ccc(-c3ccc4[nH]c5ccccc5c4c3)cc12 [Comparative Example 2, 3,3′-bicarbazole, reference compound]	1.765	B	B
C=CC(=O)n1c2ccccc2c2cc(-c3cccc4c5ccccc5n(C(=O)C=C)c34)ccc21 [Example 1, 9,9′-diacryloyl-1,3′-bicarbazole]	1.723	A	B
C=Cn1c2ccccc2c2cc(-c3cccc4c5ccccc5n(C=C)c34)ccc21 [Example 2, 9,9′-divinyl-1,3′-bicarbazole]	1.735	A	A
C=CC(=O)OCCn1c2ccccc2c2cc(-c3cccc4c5ccccc5n(CCOC(=O)C=C)c34)ccc21 [Example 3, 9,9′-bis(acryloyloxyethyl)-1,3′-bicarbazole]	1.664	A	A
c1ccc2c(c1)[nH]c1ccc(-c3cccc4c3[nH]c3ccccc34)cc12 [Synthesis Example 1, 1,3′-bicarbazole]	1.76	A	B
